Target: T1, RORγ (Mus musculus, UniProt P51450)
T1 construct: mRORγ (Pro-261-end); expressed in transfected cells
T1 sequence (P51450 261-516 limits assumed): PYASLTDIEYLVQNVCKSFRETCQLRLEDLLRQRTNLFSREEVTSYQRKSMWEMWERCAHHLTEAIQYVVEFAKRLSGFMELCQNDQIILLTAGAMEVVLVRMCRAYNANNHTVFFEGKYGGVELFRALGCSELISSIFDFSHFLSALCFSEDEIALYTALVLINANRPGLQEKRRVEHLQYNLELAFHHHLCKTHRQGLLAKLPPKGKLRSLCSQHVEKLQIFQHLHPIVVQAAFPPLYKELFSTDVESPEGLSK
Experiment: Gal4-RORγ-LBD UAS-luciferase reporter assay in TRex-CHO-K1 cells (doxycycline-stimulated)
Assay type: cell-based
Conditions: individual controls 1295.201-307, 5 μg/ml, triplicate
Text: The Gal4-DBD-ROR-LBD fusion proteins were subcloned in the pcDNA4/TO expression vector (Thermo Scientific) and transfected into TRex-CHO-K1 cells (Thermo Scientific) for tetracycline-controlled expression of the corresponding ROR proteins. Transfected cells were selected with hygromycin and Zeocin and individual clones for each of the Gal4-RORγ, Gal4-RORα, and Gal4-RORβ cell lines were isolated using a standard serial dilution protocol. Clones with the highest doxycycline-dependent stimulation of luciferase activity were selected for all functional experiments.
For screening FIU libraries, cells were resuspended in Ham’s F-12 assay medium containing 2% charcoal-treated FBS and no selection drugs. […] Cells were allowed to attach for 2 h, followed by compound treatment and stimulation with 20 ng/mL doxycycline for an additional 16–20 h. Appropriate solvent controls, negative controls with no doxycycline, and blanks with no cells were included in every plate. Prior to measuring luciferase activity, 6 µL of 0.15 mg/mL resazurin (Cayman Chemical) in PBS were added and cells were incubated for 1 h at 37 °C. Fluorescence intensity was detected at 545 nm excitation/590 nm emission using a CLARIOstar reader (BMGLabtech) as a measure of cell viability, to identify any potential cytotoxic effect of test compounds and mixtures.
Luminescence was normalized by the fluorescence intensity and the percentage of inhibition was calculated with respect to control cells stimulated with doxycycline in the presence of solvent control (0.1% DMF). All primary screens with individual compounds were performed in triplicate with a final concentration of 5 µg/mL. […] IC50 values were calculated using GraphPrism (GraphPad software).

Structure (SMILES)	% Inhibition RORγ 5 μg/ml
CCC(CN1C(NC(=O)Cc2ccccc2)=NCC1Cc1ccccc1)c1ccccc1 (mixture of isomers) [1295.235]	35.8%
CCOc1ccc(CCN2C(NC(=O)Cc3ccccc3)=NCC2Cc2ccccc2)cc1 (stereo not shown) [1295.244]	5.9%
CCc1ccc(-c2ccc(C(=O)NC3=NC[C@H](Cc4ccccc4)N3CCc3ccccc3)cc2)cc1 [1295.292]	48.3%
O=C(Cc1ccccc1)NC1=NC[C@H](Cc2ccccc2)N1CCCCc1ccccc1 [1295.252]	-2.3%
O=C(Cc1cccc(Br)c1)NC1=NC[C@H](Cc2ccccc2)N1CCc1ccccc1 [1295.277]	97.6%
O=C(Cc1ccccc1)NC1=NC[C@H](Cc2ccccc2)N1CCc1ccc(Br)cc1 [1295.242]	67.1%
O=C(Cc1ccccc1)NC1=NC[C@H](Cc2cccnc2)N1CCc1ccccc1 [1295.229]	-23.1%
CCC(C)CN1C(NC(=O)Cc2ccccc2)=NCC1Cc1ccccc1 (mixture of isomers) [1295.256]	-8.1%
COc1ccc(CCN2C(NC(=O)Cc3ccccc3)=NC[C@@H]2Cc2ccccc2)cc1OC [1295.249]	42.2%
COc1cccc(CC(=O)NC2=NC[C@H](Cc3ccccc3)N2CCc2ccccc2)c1 [1295.279]	75.2%
CC(C)(C)[C@H]1CN=C(NC(=O)Cc2ccccc2)N1CCc1ccccc1 [1295.231]	-31.5%
O=C(Cc1ccccc1)NC1=NC[C@H](Cc2ccc3ccccc3c2)N1CCc1ccccc1 [1295.221]	31.3%
CC(C)CCC(=O)NC1=NC[C@H](Cc2ccccc2)N1CCc1ccccc1 [1295.297]	62.2%
O=C(Cc1ccccc1)NC1=NCCN1CCc1ccccc1 [1295.203]	-29.5%
O=C(Cc1ccccc1)NC1=NC[C@H](Cc2ccccc2)N1CCc1cccc(Br)c1 [1295.239]	47.8%
O=C(Cc1ccccc1)NC1=NC[C@H](c2ccccc2)N1CCc1ccccc1 [1295.219]	0.1%
COc1ccc(CC(=O)NC2=NC[C@H](Cc3ccccc3)N2CCc2ccccc2)cc1 [1295.281]	52.6%
CCC[C@@H]1CN=C(NC(=O)Cc2ccccc2)N1CCc1ccccc1 [1295.216]	24.5%
COc1cccc(CCN2C(NC(=O)Cc3ccccc3)=NC[C@@H]2Cc2ccccc2)c1 [1295.241]	7.4%
O=C(Cc1ccccc1)NC1=NC[C@H](Cc2ccccc2)N1CCc1ccccc1 [1295.291]	5.6%
COc1ccc(CCC(=O)NC2=NC[C@H](Cc3ccccc3)N2CCc2ccccc2)cc1OC [1295.284]	34.0%
O=C(Cc1ccccc1)NC1=NC[C@H](Cc2ccccc2)N1CCc1ccc(F)cc1 [1295.240]	52.2%
O=C(CCCc1ccccc1)NC1=NC[C@H](Cc2ccccc2)N1CCc1ccccc1 [1295.290]	60.2%

Structure (SMILES)	% Inhibition RORγ 5 μg/ml
CCCCCCC(=O)NC1=NC[C@H](Cc2ccccc2)N1CCc1ccccc1 [1295.294]	44.3%
Cc1cccc(C(=O)NC2=NC[C@H](Cc3ccccc3)N2CCc2ccccc2)c1 [1295.288]	59.9%
CC(=O)NC1=NC[C@H](Cc2ccccc2)N1CCc1ccccc1 [1295.301]	15.4%
CC(C)CCN1C(NC(=O)Cc2ccccc2)=NC[C@@H]1Cc1ccccc1 [1295.257]	-28.5%
O=C(Cc1ccccc1)NC1=NC[C@H](Cc2ccccc2)N1CC1CCC1 [1295.265]	53.1%
O=C(Cc1ccccc1)NC1=NC[C@H](Cc2ccccc2)N1CCc1cc(C(F)(F)F)cc(C(F)(F)F)c1 [1295.246]	20.0%
CCC[C@H]1CN=C(NC(=O)Cc2ccccc2)N1CCc1ccccc1 [1295.215]	31.5%
O=C(Cc1ccccc1)NC1=NC[C@@H](Cc2ccc3ccccc3c2)N1CCc1ccccc1 [1295.222]	22.4%
CC(C)Cc1ccc(C(C)C(=O)NC2=NCC(Cc3ccccc3)N2CCc2ccccc2)cc1 (mixture of isomers) [1295.283]	58.6%
O=C(Cc1ccccc1)NC1=NC[C@H](CC2CCCCC2)N1CCc1ccccc1 [1295.223]	3.4%
CC(C)[C@H]1CN=C(NC(=O)Cc2ccccc2)N1CCc1ccccc1 [1295.206]	32.7%
CC(C)CN1C(NC(=O)Cc2ccccc2)=NC[C@@H]1Cc1ccccc1 [1295.255]	-9.8%
O=C(Cc1ccc(F)cc1)NC1=NC[C@H](Cc2ccccc2)N1CCc1ccccc1 [1295.278]	29.8%
O=C(Cc1ccccc1)NC1=NC[C@@H](Cc2ccccc2)N1CCc1ccccc1 [1295.209]	46.8%
CC(C)C(=O)NC1=NC[C@H](Cc2ccccc2)N1CCc1ccccc1 [1295.295]	31.3%
O=C(Cc1ccc(Br)cc1)NC1=NC[C@H](Cc2ccccc2)N1CCc1ccccc1 [1295.280]	42.0%
O=C(CCC1CCCC1)NC1=NC[C@H](Cc2ccccc2)N1CCc1ccccc1 [1295.304]	45.5%
CCCC[C@H]1CN=C(NC(=O)Cc2ccccc2)N1CCc1ccccc1 [1295.217]	13.0%
CC(C)(C)CN1C(NC(=O)Cc2ccccc2)=NC[C@@H]1Cc1ccccc1 [1295.259]	-25.1%
CC(C)Cc1ccc(C(C)CN2C(NC(=O)Cc3ccccc3)=NCC2Cc2ccccc2)cc1 (mixture of isomers) [1295.245]	21.5%
CCC(C)C(=O)NC1=NCC(Cc2ccccc2)N1CCc1ccccc1 (mixture of isomers) [1295.296]	41.7%
O=C(Cc1ccccc1)NC1=NC[C@H](Cc2ccccc2)N1CCCC1CCCC1 [1295.267]	56.2%
O=C(Cc1ccc(-c2ccccc2)cc1)NC1=NC[C@H](Cc2ccccc2)N1CCc1ccccc1 [1295.285]	11.1%

Structure (SMILES)	% Inhibition RORγ 5 μg/ml
C[C@H]1CN=C(NC(=O)Cc2ccccc2)N1CCc1ccccc1 [1295.201]	-40.7%
CC(C)(C)[C@@H]1CN=C(NC(=O)Cc2ccccc2)N1CCc1ccccc1 [1295.232]	8.2%
CCOc1ccc(CC(=O)NC2=NC[C@H](Cc3ccccc3)N2CCc2ccccc2)cc1 [1295.282]	-2.3%
O=C(Cc1ccccc1)NC1=NC[C@@H](Cc2ccc(Cl)cc2)N1CCc1ccccc1 [1295.226]	6.9%
CCOc1ccc(C[C@@H]2CN=C(NC(=O)Cc3ccccc3)N2CCc2ccccc2)cc1 [1295.234]	-7.7%
CCN1C(NC(=O)Cc2ccccc2)=NC[C@@H]1Cc1ccccc1 [1295.264]	7.5%
CCCC[C@@H]1CN=C(NC(=O)Cc2ccccc2)N1CCc1ccccc1 [1295.218]	-11.7%
COc1ccc(CCN2C(NC(=O)Cc3ccccc3)=NC[C@@H]2Cc2ccccc2)cc1 [1295.243]	27.2%
CC1(C)CN=C(NC(=O)Cc2ccccc2)N1CCc1ccccc1 [1295.214]	1.6%
CCCCCCCN1C(NC(=O)Cc2ccccc2)=NC[C@@H]1Cc1ccccc1 [1295.254]	48.4%
CC(C)[C@@H]1CN=C(NC(=O)Cc2ccccc2)N1CCc1ccccc1 [1295.212]	33.3%
O=C(Cc1ccccc1)NC1=NC[C@@H](Cc2cccnc2)N1CCc1ccccc1 [1295.230]	-16.0%
O=C(Cc1cccc(F)c1)NC1=NC[C@H](Cc2ccccc2)N1CCc1ccccc1 [1295.276]	104.2%
Cc1cccc(CCN2C(NC(=O)Cc3ccccc3)=NC[C@@H]2Cc2ccccc2)c1 [1295.237]	-4.8%
O=C(NC1=NC[C@H](Cc2ccccc2)N1CCc1ccccc1)C1CCC1 [1295.302]	24.7%
CCCC(=O)NC1=NC[C@H](Cc2ccccc2)N1CCc1ccccc1 [1295.293]	37.4%
O=C(Cc1ccccc1)NC1=NC[C@H](Cc2ccccc2)N1CCCc1ccccc1 [1295.251]	-112.4%
O=C(Cc1ccccc1)NC1=NC[C@H](Cc2ccccc2)N1CCc1ccccc1 [1295.202]	0.0%
CC(C)C[C@H]1CN=C(NC(=O)Cc2ccccc2)N1CCc1ccccc1 [1295.205]	54.1%
O=C(Cc1ccccc1)NC1=NC[C@H](Cc2ccc(Cl)cc2)N1CCc1ccccc1 [1295.225]	-32.6%
O=C(Cc1ccccc1)NC1=NC[C@H](Cc2ccccc2)N1CCc1cccc(F)c1 [1295.238]	34.6%

Source: PMC9029089, “1,5-Disubstituted Acylated 2-Amino-4,5-dihydroimidazoles as a New Class of Retinoic Acid Receptor–Related Orphan Receptor (ROR) Inhibitors” (International Journal of Molecular Sciences, 2022)
